Some test systems named below: HCC-2998 colon; UACC-62 melanoma; SF-539 CNS; BT-549 breast; TK-10 renal; RXF 393 renal; SF-268 CNS; MCF7 breast; OVCAR-8 ovarian; HCT-15 colon.
What all share (assay): NCI tumour cell line growth inhibition, 48 h

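Interpolation was linear, between the two tested concentrations surrounding the appropriate level; five concentrations were tested over 48 hours in 96-well plates. GI50: concentration for 50% inhibition of growth. TGI is the concentration that stops growth completely.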

As to `COc1ccc(-n2nc(C)c3c2N(C)C2(C)C[C@@H]4C3(C)[C@@H]3CC4(C2)N(C)c2c(c(C)nn2-c2ccc(OC)cc2)[C@H]3C)cc1` (some centres undefined), the GI50 was 9650 nM with HCC-2998 colon; 12600 nM in the assay with UACC-62 melanoma; 6490 nM in the assay with SF-539 CNS; 4170 nM with BT-549 breast; 4770 nM with TK-10 renal; 2920 nM in the assay with RXF 393 renal. Further, the GI50 in the assay on SF-268 CNS is 4080 nM; with MCF7 breast it was 4020 nM; in the assay with OVCAR-8 ovarian, 4.19 µM. For the same compound, the TGI with HCC-2998 colon is more than 100 µM; in the assay with UACC-62 melanoma, more than 100 µM; with SF-539 CNS, more than 100 µM; in the assay with BT-549 breast it was more than 100 µM; with TK-10 renal, 21.3 µM; with RXF 393 renal, 13.3 µM. The TGI in the assay on SF-268 CNS was 70.2 µM; in the assay with MCF7 breast it was more than 100 µM; in the assay with OVCAR-8 ovarian it was 92.7 µM.

As to `CN1C(=O)C23CC4=CC=CC(O)C4N2C(=O)C1(CO)SS3` (centres undefined), the TGI stood at 0.351 µM in the assay with HCC-2998 colon; 0.424 µM with UACC-62 melanoma; 0.17 µM in the assay on SF-539 CNS; 0.742 µM in the assay on BT-549 breast; 0.34 µM with TK-10 renal; 0.38 µM in the assay with RXF 393 renal. Also, the TGI was found to be 0.489 µM in the assay with SF-268 CNS, 0.371 µM in the assay with MCF7 breast, 0.154 µM in the assay with OVCAR-8 ovarian and 0.419 µM with HCT-15 colon.

Consider `COC(=O)C1=C(O)C(C(=O)OC)[C@@]2(O)[C@@H](C(=O)OC)C(c3ccc(OC(=O)C(CC(C)C)NC(C)=O)cc3)C[C@@H]1[C@@H]2C(=O)OC` (some centres undefined), for which the GI50 was 19000 nM in the assay with HCC-2998 colon; 23200 nM in the assay on UACC-62 melanoma; 33600 nM in the assay on BT-549 breast; 57400 nM with TK-10 renal; more than 100000 nM in the assay on RXF 393 renal; 35700 nM with SF-268 CNS. Further, the values for the GI50 in the assay with MCF7 breast, in the assay on OVCAR-8 ovarian and in the assay with HCT-15 colon were 48800 nM, 43.7 µM and 31900 nM, respectively. For the same compound, the TGI is 52 µM with HCC-2998 colon; 63.8 µM in the assay with UACC-62 melanoma; more than 100 µM in the assay with BT-549 breast; more than 100 µM with TK-10 renal; more than 100 µM with RXF 393 renal; more than 100 µM in the assay on SF-268 CNS. The TGI with MCF7 breast, in the assay with OVCAR-8 ovarian and in the assay with HCT-15 colon was more than 100 µM in each case.

Turning to `CC(C)(C)c1ccc(S(=O)(=O)N[C@H]2CC[C@H]3[C@@H]4CCc5cc(O)ccc5[C@H]4CC[C@]23C)cc1`, the GI50 was 2800 nM with HCC-2998 colon; 2160 nM with UACC-62 melanoma; 1700 nM in the assay with SF-539 CNS; 1750 nM in the assay on BT-549 breast; 3790 nM with TK-10 renal; 1610 nM in the assay with RXF 393 renal. Also, the results for the GI50 in the assay with SF-268 CNS, in the assay on MCF7 breast and in the assay on OVCAR-8 ovarian were 3940 nM, 1740 nM and 2.02 µM, respectively. Besides, the TGI with HCC-2998 colon was 7.1 µM; in the assay on UACC-62 melanoma, 5.91 µM; in the assay with SF-539 CNS, 3.14 µM; with BT-549 breast, 3.32 µM; in the assay with TK-10 renal it was 12.1 µM; in the assay on RXF 393 renal, 3.46 µM. Besides, the figures for the TGI in the assay on SF-268 CNS, with MCF7 breast and in the assay with OVCAR-8 ovarian were 14 µM, 3.57 µM and 4.59 µM, respectively.

For the compound `CCCCCCN1C(=O)CN=C1Nc1ccc2cc3ccc(NC4=NCC(=O)N4CCCCCC)cc3nc2c1`, the GI50 in the assay on HCC-2998 colon was 1580 nM; with UACC-62 melanoma, 11700 nM; in the assay with SF-539 CNS, 1810 nM; with BT-549 breast, 3460 nM; in the assay on TK-10 renal, 1560 nM; with RXF 393 renal it was 1520 nM. In addition, the GI50 in the assay on SF-268 CNS is 2020 nM; in the assay with MCF7 breast it was 1660 nM. The TGI with HCC-2998 colon came to 3.04 µM; in the assay on UACC-62 melanoma it was 30 µM; in the assay with SF-539 CNS it was 3.63 µM; in the assay with BT-549 breast, 17.6 µM; in the assay on TK-10 renal, 3.63 µM; in the assay with RXF 393 renal, 3.22 µM. Besides, the TGI with SF-268 CNS is 5.72 µM; with MCF7 breast, 3.95 µM.

As to `O=c1c2cc(F)ccc2sc2c(NCCCN3CCCC3)nc3ccccc3c12`, the GI50 with HCC-2998 colon was 1670 nM; in the assay with UACC-62 melanoma, 1870 nM; in the assay with SF-539 CNS it was 1690 nM; in the assay with BT-549 breast, 2990 nM; in the assay with TK-10 renal, 1990 nM; with RXF 393 renal, 2330 nM. Besides, the GI50 is 1220 nM in the assay on MCF7 breast, 2.11 µM with OVCAR-8 ovarian and 1820 nM in the assay with HCT-15 colon. Moreover, the TGI in the assay with HCC-2998 colon came to 3.25 µM; with UACC-62 melanoma it was 3.77 µM; in the assay on SF-539 CNS it was 3.19 µM; in the assay on BT-549 breast it was 12 µM; in the assay on TK-10 renal it was 3.65 µM; in the assay with RXF 393 renal, 8.67 µM. In addition, the TGI is 2.89 µM with MCF7 breast, 4.86 µM with OVCAR-8 ovarian and 3.53 µM in the assay with HCT-15 colon.

Consider `N#Cc1ccc(N2Cc3cc(Cl)ccc3OC3=C2C(=O)N(Cc2ccccc2)C3=O)cc1`, for which the GI50 is 1890 nM in the assay with HCC-2998 colon; 1260 nM in the assay with UACC-62 melanoma; 1700 nM with SF-539 CNS; 1600 nM with BT-549 breast; 1450 nM with TK-10 renal; 1540 nM with RXF 393 renal. Also, the GI50 in the assay with SF-268 CNS was 1750 nM; in the assay on MCF7 breast it was 769 nM; in the assay with HCT-15 colon it was 628 nM. In addition, the TGI with HCC-2998 colon is 3.65 µM; with UACC-62 melanoma, 2.86 µM; with SF-539 CNS it was 3.19 µM; in the assay with BT-549 breast, 3.3 µM; in the assay with TK-10 renal, 2.77 µM; in the assay on RXF 393 renal it was 3.05 µM. Besides, the TGI in the assay with SF-268 CNS turned out to be 3.89 µM; with MCF7 breast it was 4.72 µM; with HCT-15 colon, 2.95 µM.

For `C#Cc1cccc(Nc2ncnc3ccc(-c4cncc(NS(C)(=O)=O)c4)cc23)c1`, the GI50 with HCC-2998 colon was 2670 nM; with UACC-62 melanoma it was 1660 nM; with SF-539 CNS, 1460 nM; with BT-549 breast it was 1070 nM; with RXF 393 renal it was 1680 nM; with SF-268 CNS, 1920 nM. The values for the GI50 in the assay with MCF7 breast, in the assay on OVCAR-8 ovarian and in the assay with HCT-15 colon were 1500 nM, 3.7 µM and 3470 nM, respectively. Moreover, the TGI in the assay on HCC-2998 colon is 11.8 µM; with UACC-62 melanoma, 5.69 µM; in the assay on SF-539 CNS it was 4.96 µM; with BT-549 breast, 4.55 µM; in the assay on RXF 393 renal, 4.84 µM; in the assay with SF-268 CNS, 11.5 µM. The TGI came out at 8.71 µM in the assay with MCF7 breast, 28.1 µM with OVCAR-8 ovarian and 16.7 µM in the assay with HCT-15 colon.

(Values after PubChem BioAssay (NCI).)
